Measured values: patent US8129355B2, “Ketone ligands for modulating the expression of exogenous genes via an ecdysone receptor complex” (priority 2002, dated 2012)

Columns and labels:
[1] = molecular target: T1, GAL4 DBD (1-147)-CfEcR(DEF)/VP16AD-βRXREF-LmUSPEF (Choristoneura fumiferana, UniProt O77240); assay: 27-63 assay: luciferase reporter gene expression in stable CHO cell clone 27-63; details: for 27-63 Rel Max FI: maximum fold induction at any concentration relative to that of GS-E ligand; for CC50: read-out: 27-63 LC50, average, dose response, three-parameter logistic model; for Fold Induction Average, 27-63 Assay (33 μM): single dose 33 μM, RLU ligand treated / RLU DMSO treated cells
T1 sequence (O77240 191-513): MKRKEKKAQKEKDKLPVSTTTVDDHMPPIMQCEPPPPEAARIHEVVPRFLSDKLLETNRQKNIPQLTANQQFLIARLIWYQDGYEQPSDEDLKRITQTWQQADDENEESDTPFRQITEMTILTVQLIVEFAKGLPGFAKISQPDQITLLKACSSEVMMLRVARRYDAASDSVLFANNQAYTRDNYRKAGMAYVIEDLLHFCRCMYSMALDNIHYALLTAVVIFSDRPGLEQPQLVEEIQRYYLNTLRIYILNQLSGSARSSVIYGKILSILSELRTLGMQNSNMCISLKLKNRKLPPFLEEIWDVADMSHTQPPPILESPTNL
T1 sequence (P28702 296-455 partner limits assumed): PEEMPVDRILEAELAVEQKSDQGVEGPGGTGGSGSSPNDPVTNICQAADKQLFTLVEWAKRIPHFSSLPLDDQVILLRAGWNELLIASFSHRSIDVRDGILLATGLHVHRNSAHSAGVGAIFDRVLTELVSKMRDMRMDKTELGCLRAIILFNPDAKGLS
Excerpt: GAL4 DBD (1-147)-CfEcR(DEF)/VP16AD-βRXREF-LmUSPEF: The wild-type D, E, and F domains from spruce budworm Choristoneura fumiferana EcR (“CfEcR-DEF”; SEQ ID NO: 1) were fused to a GAL4 DNA binding domain (“Gal4 DBD1-147”; nucleotides 31 to 471 of SEQ ID NO: 2) and placed under the control of a phosphoglycerate kinase promoter (“PGK”; SEQ ID NO: 3). Helices 1 through 8 of the EF domains from Homo sapiens RXRβ and helices 9 through 12 of the EF domains of Locusta migratoria Ultraspiracle Protein (“HsRXRβ-EF-LmUSP-EF”; SEQ ID NO: 4) were fused to the transactivation domain from VP16 (“VP16AD”; SEQ ID NO: 5) and placed under the control of an elongation factor-1α promoter (“EF-1α”; SEQ ID NO: 6). Five consensus GAL4 response element binding sites (“5XGAL4RE”; comprising 5 copies of a GAL4RE comprising SEQ ID NO: 7) were fused to a synthetic TATA minimal promoter (SEQ ID NO: 8) and placed upstream of the luciferase reporter gene (SEQ ID NO: 9).
CHO cells were transiently transfected with transcription cassettes for GAL4 DBD (1-147) CfEcR(DEF) and for VP16AD βRXREF-LmUSPEF controlled by ubiquitously active cellular promoters (PGK and EF-1α, respectively) on a single plasmid. Stably transfected cells were selected by Zeocin resistance. Individually isolated CHO cell clones were transiently transfected with a GAL4 RE-luciferase reporter (pFR Luc). 27-63 clone was selected using Hygromycin.
Cells were trypsinized and diluted to a concentration of 2.5×10^4 cells mL. 100 μL of cell suspension was placed in each well of a 96 well plate and incubated at 37° C. under 5% CO2 for 24 h. Ligand stock solutions were prepared in DMSO and diluted 300 fold for all treatments. Dose response testing consisted of 8 concentrations ranging from 33 μM to 0.01 μM.
Luciferase reporter gene expression was measured 48 h after cell treatment using Bright-Glo™ Luciferase Assay System from Promega (E2650). Luminescence was detected at room temperature using a Dynex MLX microtiter plate luminometer.
Fold inductions were calculated from single dose testing by dividing relative light units (RLU) in ligand treated cells by RLU in DMSO treated cells. BC50s were calculated from dose response data using a three-parameter logistic model.

[2] = molecular target: T2, GAL4 DBD-CfEcR(DEF)/VP16AD-MmRXRE (Choristoneura fumiferana, UniProt O77240); assay: cell-based
T2 sequence (O77240 1-513): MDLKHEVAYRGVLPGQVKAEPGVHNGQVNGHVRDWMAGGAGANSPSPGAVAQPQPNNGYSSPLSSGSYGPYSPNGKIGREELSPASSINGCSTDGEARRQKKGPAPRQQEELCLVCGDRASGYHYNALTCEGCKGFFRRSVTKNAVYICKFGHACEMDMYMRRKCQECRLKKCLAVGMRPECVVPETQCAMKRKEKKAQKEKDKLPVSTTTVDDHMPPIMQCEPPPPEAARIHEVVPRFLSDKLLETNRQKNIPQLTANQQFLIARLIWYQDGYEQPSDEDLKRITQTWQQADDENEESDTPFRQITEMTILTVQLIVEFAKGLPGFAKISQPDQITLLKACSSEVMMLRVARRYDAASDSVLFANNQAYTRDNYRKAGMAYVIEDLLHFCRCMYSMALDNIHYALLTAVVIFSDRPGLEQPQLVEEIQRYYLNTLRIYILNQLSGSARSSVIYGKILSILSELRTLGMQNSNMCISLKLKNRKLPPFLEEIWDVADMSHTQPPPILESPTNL
Procedure, shortened: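 Stable CHO clone 13B3 expressing GAL4 DBD-CfEcR(DEF) and VP16AD-mouse RXR(DE) with GAL4 RE-luciferase reporter. Ligands tested at 8 concentrations, 33–0.01 μM; luciferase read 48 h after treatment. Fold induction versus DMSO; BC50 from three-parameter logistic fit.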

[3] = molecular target: T3, Gal4 DBD/AaEcR (DEF) with VP16-βRXR-E (Aedes aegypti, UniProt P49880); assay: cell-based; type: cell-based; details: for Fold Induction Average, AA_3T3 Assay (33 μM): single dose 33 μM, RLU ligand treated / RLU DMSO treated cells; for LC50 (half-maximal ligand concentration for reporter induction): average, dose response 33 μM to 0.01 μM, three-parameter logistic model, read-out: AA_3T3 LC50; for AA_3T3 Rel Max FI: maximum fold induction at any concentration relative to that of GS-E ligand
T3 construct: The wildtype D, E, and F domains from mosquito Aedes aegypti EcR (“AaEcR-DEF”); expressed in transfected cells; host or cells: 3T3 cells, transient transfection (Superfect)
Procedure: 3T3 cells were trypsinized and plated at 2.5×10^3 cells/well on a 96-well plate. After incubation for 24 h at 37° C. under 5% CO2, cells were transfected with the Gal4 DBD/AaEcR (DEF) gene expression cassette and the reporter plasmid, pFRLuc, containing a 5XGAL4 response element and the firefly luciferase gene in serum free media using Superfect (Qiagen). After transfection for 4 h at 37° C., the cells were treated with ligand in serum media. […] Single dose testing was performed at 33 μM.

[4] = molecular target: T4, Bombyx mori EcR (VP16 fusion, switch construct CVBE) with 6XEcRE LacZ reporter (Bombyx mori, UniProt P49881); assay: Z3 assay: β-galactosidase (LacZ) reporter gene fold induction in stably transformed human 293 kidney cells (clone Z3); type: cell-based; details: for CC50: average, dose response, three-parameter logistic model, read-out: Z3 LC50; for Z3 Rel Max FI: maximum fold induction at any concentration relative to that of GS-E ligand
T4 construct: expressed in transfected cells; host or cells: Human 293 kidney (HEK-293) cells, retrovirally infected, clone Z3
T4 sequence (P49881 86-606 limits assumed): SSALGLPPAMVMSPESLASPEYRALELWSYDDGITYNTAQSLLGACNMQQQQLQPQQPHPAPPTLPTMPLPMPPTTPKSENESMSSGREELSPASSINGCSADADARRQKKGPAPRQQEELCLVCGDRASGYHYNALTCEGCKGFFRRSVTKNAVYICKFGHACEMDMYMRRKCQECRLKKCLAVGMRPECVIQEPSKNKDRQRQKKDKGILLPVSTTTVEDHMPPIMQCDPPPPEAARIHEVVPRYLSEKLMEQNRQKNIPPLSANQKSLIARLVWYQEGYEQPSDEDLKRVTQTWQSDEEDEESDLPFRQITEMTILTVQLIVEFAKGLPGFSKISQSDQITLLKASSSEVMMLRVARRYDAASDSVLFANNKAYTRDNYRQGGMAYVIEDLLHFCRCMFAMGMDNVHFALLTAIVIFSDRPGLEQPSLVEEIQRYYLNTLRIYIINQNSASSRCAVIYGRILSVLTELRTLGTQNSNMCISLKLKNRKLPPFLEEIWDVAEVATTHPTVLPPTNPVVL
T4 sequence (P19793 1-462 partner): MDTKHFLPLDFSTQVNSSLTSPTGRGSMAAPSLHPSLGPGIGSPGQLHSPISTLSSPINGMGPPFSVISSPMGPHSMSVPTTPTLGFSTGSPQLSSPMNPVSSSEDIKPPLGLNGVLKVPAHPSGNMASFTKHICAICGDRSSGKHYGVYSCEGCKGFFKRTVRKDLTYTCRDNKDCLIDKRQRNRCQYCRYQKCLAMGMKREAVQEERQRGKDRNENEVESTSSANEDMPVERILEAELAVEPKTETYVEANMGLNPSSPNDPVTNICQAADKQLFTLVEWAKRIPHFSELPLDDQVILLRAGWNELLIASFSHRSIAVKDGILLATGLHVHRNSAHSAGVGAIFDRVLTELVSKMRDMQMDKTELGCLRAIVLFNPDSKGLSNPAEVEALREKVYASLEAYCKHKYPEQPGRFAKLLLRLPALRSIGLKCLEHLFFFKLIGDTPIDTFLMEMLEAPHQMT
Procedure, shortened: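 β-Galactosidase read 48 h after dosing by bioluminescent assay; ligand added at 33 μM with DMSO held at 0.03%. The cells are stable 293 clone Z3, expressing a CMV-driven VP16 fusion of Bombyx mori EcR residues 26-546 plus six EcRE copies upstream of lacZ.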

[5] = single dose 33 μM, ligand treated / DMSO treated cells

T3 sequence (P28704 286-520 A311G/G315S/G445S/I449V): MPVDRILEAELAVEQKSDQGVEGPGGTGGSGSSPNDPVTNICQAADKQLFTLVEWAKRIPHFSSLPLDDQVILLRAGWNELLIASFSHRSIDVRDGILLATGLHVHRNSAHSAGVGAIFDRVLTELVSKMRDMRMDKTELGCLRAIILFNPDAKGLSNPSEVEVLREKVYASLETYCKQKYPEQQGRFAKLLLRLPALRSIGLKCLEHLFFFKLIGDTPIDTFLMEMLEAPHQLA
T3 sequence (P49880 405-776): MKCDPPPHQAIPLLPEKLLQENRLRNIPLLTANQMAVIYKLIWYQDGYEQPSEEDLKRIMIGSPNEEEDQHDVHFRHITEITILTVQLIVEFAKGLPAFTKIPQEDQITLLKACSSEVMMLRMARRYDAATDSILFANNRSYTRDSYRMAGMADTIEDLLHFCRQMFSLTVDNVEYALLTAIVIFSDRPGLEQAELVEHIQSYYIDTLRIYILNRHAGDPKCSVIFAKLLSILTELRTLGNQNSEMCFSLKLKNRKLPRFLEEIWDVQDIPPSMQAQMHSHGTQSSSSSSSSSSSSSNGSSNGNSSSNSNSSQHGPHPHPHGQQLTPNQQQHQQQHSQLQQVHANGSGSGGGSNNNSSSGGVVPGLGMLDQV

Compound | 27-63 Rel Max FI [1] | CC50 [1] | Fold Induction Average, AA_3T3 Assay (33 μM) [3] | Fold Induction Average, Z3 Assay (33 μM) [4, 5] | CC50 [4] | Z3 Rel Max FI [4] | further results
COc1cccc(C(=O)NC(C)(C(=O)c2ccc(F)c(C)c2)C(C)C)c1C (centres unmarked) [Example 56] | 0.06 | > 33 µM | – | – | – | – | EC50 [2]: > 33 µM; 13B3 Rel Max FI ([2]; maximum fold induction at any concentration relative to that of GS-E ligand): 0.00
COc1cccc(C(=O)NC(C)(C(=O)c2cc(C)cc(C)c2)c2ccc(F)cc2)c1C (centres unmarked) [Example 73] | – | – | 1 | 4 | – | – | –
Cc1cc(C)cc(C(=O)C2(NC(=O)c3ccc4c(c3)COCO4)CCCCC2)c1 [Example 83] | 0.70 | 7.06 µM | – | – | 6.15 µM | 0.41 | –
CCc1c(C(=O)NC2(C(=O)c3cc(C)cc(C)c3)CCCC2)ccc2c1OCCO2 [Example 84] | 0.82 | 1.02 µM | – | – | 1.59 µM | 0.91 | –
Cc1cc(C)cc(C(=O)C2(NC(=O)c3ccc4c(c3C)OCO4)CCCC2)c1 [Example 85] | 0.94 | 3.86 µM | – | – | 4.76 µM | 0.67 | –
Cc1cc(C)cc(C(=O)C2(NC(=O)c3ccc4c(c3)OCCO4)CCCC2)c1 [Example 86] | 0.80 | 4.88 µM | – | – | 5.49 µM | 0.61 | –
Cc1cc(C)cc(C(=O)C2(NC(=O)c3ccc4c(c3)COCO4)CCCC2)c1 [Example 87] | 0.53 | 18.7 µM | – | – | 9.46 µM | 0.17 | –
Cc1cc(C)cc(C(=O)C2(NC(=O)c3ccccc3C)CCCC2)c1 [Example 89] | 0.07 | > 33 µM | 78 | – | – | – | LC50 (half-maximal ligand concentration for reporter induction) [3]: > 33 µM; AA_3T3 Rel Max FI [3]: 0.00
CCC(=O)C(C)(C)NC(=O)c1ccccc1C [Example 124] | – | – | 2 | – | – | – | –
CCC(=O)C(C)(C)NC(=O)c1ccc(CC)cc1 [Example 125] | – | – | 1 | – | – | – | –
CCC(=O)C1(NC(=O)c2ccccc2C)CCCC1 [Example 132] | – | – | 1 | – | – | – | –
COc1cccc(C(=O)NC2(C(=O)c3cc(C)cc(C)c3)CCCC2)c1 [Example 137] | 0.21 | > 33 µM | 115 | – | – | – | LC50 (half-maximal ligand concentration for reporter induction) [3]: > 33 µM; AA_3T3 Rel Max FI [3]: 0.01
Cc1ccccc1C(=O)NC1(C(=O)c2ccccc2)CCCC1 [Example 140] | 0.00 | > 33 µM | – | – | > 33 µM | 0.00 | –
O=C(NC1(C(=O)c2ccccc2)CCCC1)c1ccc2c(c1)OCO2 [Example 142] | 0.00 | > 33 µM | – | – | > 33 µM | 0.00 | –
COc1cccc(C(=O)NC2(C(=O)c3cc(C)cc(C)c3)CCNCC2)c1C [Example 147] | – | – | – | – | – | – | fold induction at 33 µM ([1]; CHO, read-out: Fold Induction Average, 27-63 Assay (33 μM)): 1; fold induction at 33 µM ([4]; single dose 33 μM, ligand treated / DMSO treated cells, read-out: Fold Induction Average, Z3 Assay (33 μM)): 1
CCOC(=O)C(=O)N1CCC(NC(=O)c2cccc(OC)c2C)(C(=O)c2cc(C)cc(C)c2)CC1 [Example 150] | – | – | – | 3 | – | – | Fold Induction Average, 27-63 Assay (33 μM) [1]: 1
COc1cccc(C(=O)NC2(C(=O)c3cc(C)cc(C)c3)CCN(S(C)(=O)=O)CC2)c1C [Example 151] | – | – | – | 3 | – | – | Fold Induction Average, 27-63 Assay (33 μM) [1]: 1
CCOC(=O)CN1CCC(NC(=O)c2cccc(OC)c2C)(C(=O)c2cc(C)cc(C)c2)CC1 [Example 152] | – | – | – | 6 | – | – | Fold Induction Average, 27-63 Assay (33 μM) [1]: 3
COc1cccc(C(=O)NC2(C(=O)c3cc(C)cc(C)c3)CCN(C(=O)OC(C)C)CC2)c1C [Example 158] | – | – | 1 | 4 | – | – | –
COc1cccc(C(=O)NC2(C(=O)c3cc(C)cc(C)c3)CCN(CC#N)CC2)c1C [Example 159] | – | – | – | 2 | – | – | Fold Induction Average, 27-63 Assay (33 μM) [1]: 1
